These results are taken from patent US20240174631A1, “COMPOUNDS, COMPOSITIONS, AND METHODS FOR MODULATING FGF ACTIVITY” (Recovery Therapeutics, Inc., priority 2021, published 2024).

Assay [1] addresses FGFR1 (Homo sapiens, UniProt P11362). Kind of assay: Thermal shift assay (TSA) of FGFR1/FGF2 complex, FGFR1 melting peak. Set-up: made in house; host or cells: Escherichia coli BL21 (DE3) Star. Conditions: FGF2/FGFR1 complex; for ΔTm at 10 µM: 10 μM compound; for ΔTm at 100 µM: 100 μM compound; for ΔTm at 25 µM: 25 μM compound; for ΔTm at 2 µM: 2 μM compound. It counts as binding. From the text: (§1) TSA was utilized to biophysically characterize the recombinant human FGFR1/FGF2 complex in the presence or absence of compounds. The assay functions by protein denaturation over a temperature gradient. During protein unfolding, exposed hydrophobic regions bind a dye and fluoresce due to solvent relaxation effects. Changes in the melting temperature of the protein complex in the presence of each compound were monitored and compounds were screened/ranked using this method.
Cell pellets were thawed and resuspend in 100 mL of FGFR1 Lysis Buffer per 9 g of pellet (20 mM Tris-HCl pH 8.0, 500 mM NaCl, 1 mM dithiothreitol) by stirring at 4° C. for 1 hour. Cells were lysed in 3 cycles on/off for 3 minutes each at 4° C. via sonication followed by centrifugation for 30 minutes at 16,000 RPM in rotor F20 at 4° C., after which the supernatant was discarded. This process was then repeated twice. The pellets were resuspended in 150 mL FGFR1 solubilization buffer (8 M urea, 20 mM Tris-HCL pH 8.0, 150 mM NaCl, 1 mM dithiothreitol) by stirring for 1 hour at 4° C., and the solution was subjected to centrifugation for 30 minutes at 16,000 RPM in rotor F20 at 4° C. The pellets were discarded, and the supernatant was filtered through a […] polyethersylfone (PES) filter. After filtration, the supernatant was added dropwise to 1 L FGFR1 refolding buffer (20 mM Tris-HCl pH 8.0, 150 mM NaCl, 0.5 M L-arginine, 25 mM MgCl2) using a glass column. Protein was concentrated by tangential flow from 1 L to 100 mL and dialyzed against 1 L of FGFR1 Dialysis Buffer (20 mM Tris-HCl pH 8.0, 150 mM NaCl, 25 mM MgCl2) for 2 hours at 4° C., and the dialysis step was repeated with fresh buffer for an additional 2 hours at 4° C. The material thus obtained was then centrifuged at 4000 RPM in Eppendorf tabletop centrifuge for 5 minutes and loaded onto 2×5 mL heparin columns. The columns were washed extensively (20 CV) using FGFR1 Heparin Buffer A (20 mM Tris-HCl pH 8.0, 150 mM NaCl, 25 mM MgCl2) and then eluted using FGFR1 Heparin Buffer B (20 mM Tris-HCl pH 8.0, 1.5 M NaCl, 25 mM MgCl2). A large peak was recovered that was >95% pure by SDS-PAGE analysis gel (Expected Mw: 25 KDa). The protein was collected and diluted in 20 mM Tris-HCl pH 8.0, 25 mM MgCl2 buffer in order to reach a NaCl concentration of 150 mM. The FGFR1 thus obtained was concentrated and stored at −80° C.
(§2) Thawed aliquots of purified FGF2 (1.0 mg/mL) and FGFR1 (1.6 mg/mL) proteins were mixed in a 1:1 molar ratio (64 μM: 64 μM) on ice for 30 min at 4° C. and plated prior to the thermal shift assay (TSA). Complex formation was verified by loading the complexed material on a size exclusion column (superdex 300GL S200) and observing the monodisperse peak corresponding to the FGF2/FGFR1 complex (˜40 kDa). Compounds of the invention were screened in dose response format (0-100 μM) with the FGF2/FGFR1 complex in triplicates. FGF2/FGFR1/compound complexes were mixed in a 1000:1 ratio with Sypro Orange dye (Sigma-Aldrich). The samples were processed using a Bio-Rad CFX C96 Touch quantitative polymerase chain reaction and run using the FRET assay settings with a heating ramp of 0.3° C./s cycling from 4 to 100° C. Data analysis was performed using the Bio-Rad CFX Manager Software (version 3.1, Bio-Rad) and changes in the melting temperature (Tm) of the complex in the presence of each compound were monitored. The results are shown in Tables 2 and 3 below and also in FIG. 1 (for Compound 2).

The target in assay [2] is T1, FGF2 (Homo sapiens, UniProt P09038).
T1 construct: made in house; host or cells: Escherichia coli BL21 (DE3) Star
T1 sequence (P09038 156-288 limits assumed): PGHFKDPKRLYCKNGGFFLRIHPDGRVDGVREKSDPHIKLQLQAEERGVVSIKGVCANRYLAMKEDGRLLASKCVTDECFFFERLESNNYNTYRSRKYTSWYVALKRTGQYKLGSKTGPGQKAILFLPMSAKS
T1 sequence (P11362 142-365 partner limits assumed): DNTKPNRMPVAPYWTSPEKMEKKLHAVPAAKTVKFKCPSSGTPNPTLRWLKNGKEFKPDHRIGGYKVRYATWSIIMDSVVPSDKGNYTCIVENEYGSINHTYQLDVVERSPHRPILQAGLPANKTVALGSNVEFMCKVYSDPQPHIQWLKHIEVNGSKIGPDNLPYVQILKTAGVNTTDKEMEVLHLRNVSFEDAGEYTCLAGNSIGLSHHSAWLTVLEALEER
Put plainly: Thermal shift assay (TSA) of FGFR1/FGF2 complex, FGF2 melting peak. It counts as binding. As to conditions: for ΔTm at 10 µM: 10 μM compound; for ΔTm at 100 µM: 100 μM compound; for ΔTm at 25 µM: 25 μM compound; for ΔTm at 2 µM: 2 μM compound.
Description: as §1
One Shot BL21 (DE3) Star Escherichia coli competent cells (Thermo Fisher) were transformed with a relevant FGF2 plasmid and inoculated onto Ampicillin Luria Broth/Agar plates. Two hundred milliliter portions of Terrific Broth starter cultures were used to inoculate 9 L cultures with ampicillin at a concentration of 100 μg/mL. Cultures were grown to an O.D.600 near 1.0 at 37° C., and induced with IPTG overnight at 18° C. The cells were harvested at 7000 RPM in rotor 6000 for 5 min at 4° C. and stored at −80° C. Bacterial pellets were resuspended in 25 mM Hepes-NaOH, pH 7.5, 250 mM NaCl, and the cells were lysed in 3 cycles on/off for 3 minutes each at 4° C. via sonication. After centrifugation for 30 minutes at 16,000 RPM at 4° C., the isolated pellets were discarded, and the supernatant was filtered supernatant through a […] PES filter using 100 mL superloop. The lysate was purified over a 5 mL S column by washing the column with Lysis buffer for 5 CV then eluting using gradient from 250 mM to 1 M NaCl over 20 CV. The fractions containing FGF2 were identified via SDS-PAGE gel (Expected Mw: 15.2 KDa). The protein was collected and diluted in 20 mM Tris-HCl pH 8.0, 25 mM MgCl2 buffer in order to reach a NaCl concentration of 150 mM. The purified FGF2 was concentrated and stored at −80° C.
as §2

Chain of FGFR1 (P11362 142-365 limits assumed): as the sequence (P11362 142-365 partner limits assumed) above
Chain of FGFR1 (P09038 156-288 partner limits assumed): as the sequence (P09038 156-288 limits assumed) above

As a reminder, the ΔTm is the shift of the melting midpoint relative to a reference. With `Brc1ccc2c(c1)CCN(C1CCN(C(c3ccccc3)c3ccccc3)CC1)C2` [Compound 1, 2-(1-benzhydrylpiperidin-4-yl)-6-bromo-1,2,3,4-tetrahydroisoquinoline], in assay [1], the ΔTm at 10 µM came out at 2 °C and the ΔTm at 100 µM was 3 °C. Besides, in assay [2], the ΔTm at 10 µM is -1.5 °C and the ΔTm at 100 µM is -1.8 °C.
As to `N#Cc1ccc2c(c1)CCN(C1CCN(C(c3ccccc3)c3ccccc3)CC1)C2` [Compound 3, 2-(1-benzhydrylpiperidin-4-yl)-1,2,3,4-tetrahydroisoquinoline-6-carbonitrile], the values for the ΔTm at 25 µM in assay [1] and in assay [2] were 0 °C and 3.7 °C, respectively.
As to `c1ccc(C(c2ccccc2)N2CCC(N3CCc4ccncc4C3)CC2)cc1` [Compound 4, 2-(1-benzhydrylpiperidin-4-yl)-1,2,3,4-tetrahydro-2,7-naphthyridine], the ΔTm at 2 µM was 14.5 °C in assay [1] and -2.2 °C in assay [2].
Consider `Clc1ccc2c(c1)CCN(C1CCN(C(c3ccccc3)c3ccccc3)CC1)C2` [Compound 5, 2-(1-benzhydrylpiperidin-4-yl)-6-chloro-1,2,3,4-tetrahydroisoquinoline], for which the results for the ΔTm at 25 µM in assay [1] and in assay [2] were 1.2 °C and -1.7 °C, respectively.
Taken in the same sequence, the figures for `Fc1ccc2c(c1)CCN(C1CCN(C(c3ccccc3)c3ccccc3)CC1)C2` [Compound 6, 2-(1-benzhydrylpiperidin-4-yl)-6-fluoro-1,2,3,4-tetrahydroisoquinoline] were 1.5 °C and 0 °C.
On to `Fc1cccc2c1CCN(C1CCN(C(c3ccccc3)c3ccccc3)CC1)C2` [Compound 7, 2-(1-benzhydrylpiperidin-4-yl)-5-fluoro-1,2,3,4-tetrahydroisoquinoline], for which the ΔTm at 10 µM in assay [1] was 10.7 °C; in assay [2], -0.2 °C.
In the same order, the values of `Fc1ccc2c(c1)CN(C1CCN(C(c3ccccc3)c3ccccc3)CC1)CC2` [Compound 8, 2-(1-benzhydrylpiperidin-4-yl)-7-fluoro-1,2,3,4-tetrahydroisoquinoline] are 3.3 °C and -0.5 °C.
Turning to `Fc1cccc2c1CN(C1CCN(C(c3ccccc3)c3ccccc3)CC1)CC2` [Compound 9, 2-(1-benzhydrylpiperidin-4-yl)-8-fluoro-1,2,3,4-tetrahydroisoquinoline], the ΔTm at 100 µM in assay [1] and in assay [2] was 0 °C each time.
Take `c1ccc(C(c2ccccc2)N2CCC(N3CCc4cccnc4C3)CC2)cc1` [Compound 14, 7-(1-benzhydrylpiperidin-4-yl)-5,6,7,8-tetrahydro-1,7-naphthyridine]: the ΔTm at 25 µM in assay [1] was 5.4 °C; in assay [2], -3.3 °C.
With `c1ccc(C(c2ccccc2)N2CCC(N3CCc4ncccc4C3)CC2)cc1` [Compound 17, 6-(1-benzhydrylpiperidin-4-yl)-5,6,7,8-tetrahydro-1,6-naphthyridine], the ΔTm at 10 µM was 3 °C in assay [1] and -2.7 °C in assay [2].
Regarding `c1ccc(C(c2ccccc2)N2CCC(N3CCc4cnccc4C3)CC2)cc1` [Compound 19, 2-(1-benzhydrylpiperidin-4-yl)-1,2,3,4-tetrahydro-2,6-naphthyridine], the ΔTm at 25 µM is 2.8 °C in assay [1] and -3 °C in assay [2].
In the case of `FC1(F)CN(C2CCN(C(c3ccccc3)c3ccccc3)CC2)Cc2ccccc21` [Compound 21, 2-(1-benzhydrylpiperidin-4-yl)-4,4-difluoro-1,2,3,4-tetrahydroisoquinoline], the figures for the ΔTm at 2 µM in assay [1] and in assay [2] were 11.6 °C and -3.6 °C, respectively.
In the same order, the values of `Fc1cccc2c1CCN(C1CN(C(c3ccccc3)c3ccccc3)C1)C2` [Compound 38, 2-(1-benzhydrylazetidin-3-yl)-5-fluoro-1,2,3,4-tetrahydroisoquinoline] are 9.8 °C and -2.7 °C.
Consider `Brc1ccc2c(c1)CCN(C1CN(C(c3ccccc3)c3ccccc3)C1)C2` [Compound 43, 2-(1-benzhydrylazetidin-3-yl)-6-bromo-1,2,3,4-tetrahydroisoquinoline], for which the ΔTm at 100 µM is 6.6 °C in assay [1] and -4.5 °C in assay [2].
Taken in the same sequence, the figures for `CCN(CC)c1ccc2c(c1)CCN(C1CN(C(c3ccccc3)c3ccccc3)C1)C2` [Compound 56, 2-(1-benzhydrylazetidin-3-yl)-N,N-diethyl-1,2,3,4-tetrahydroisoquinolin-6-amine] were -0.5 °C and 0 °C.
Taken in the same sequence, the figures for `Fc1ccc(CN2CCC(N3CCc4cc(Br)ccc4C3)CC2)cc1` [Compound 81, 6-bromo-2-(1-(4-fluorobenzyl)piperidin-4-yl)-1,2,3,4-tetrahydroisoquinoline] were 0.3 °C and 0 °C.
`CCN(CC)c1ccc2c(c1)CCN(C1CCN(Cc3ccc(F)cc3)CC1)C2` [Compound 85, N,N-diethyl-2-(1-(4-fluorobenzyl)piperidin-4-yl)-1,2,3,4-tetrahydroisoquinolin-6-amine]: the ΔTm at 2 µM was 14 °C in assay [1] and 0 °C in assay [2].
